Key:
[1] = tested on: human fibroblast cell lines; assay: toxicity in non-tumor cells (images); format: cell-based; conditions: doses up to 20 μM, 48 hours
Source text: FIGS. 4A through 4H depict that small Molecule KRAS Inhibition Reduces Proliferation and Induces Apoptosis in Melanoma. FIGS. 4A and 4B show proliferation (slope of cell index) of Mel Juso (FIG. 4A) and Mel Im (FIG. 4B) cells treated with DMSO and different concentrations of the KRAS small molecule inhibitor Deltarasin (DR). The cell index as dimensionless parameter for cell proliferative ability was used to determine the half maximal inhibitory concentration (IC50, small graphs) of DR. […] FIG. 4D illustrates exemplary images of different melanoma cell lines (Mel Im, Mel Juso and Mel Ei) treated with 5 μM DR or 5 μM DMSO, respectively, for 24 hours. FIGS. 4E and 4F show images of fibroblast cell lines derived from two different donors (F1, F2) and melanocytes (NHEM) treated DR (20 μM, 48 hours) or DMSO (FIG. 4E), and lactate dehydrogenase (LDH) quantification (FIG. 4F) in cell supernatants (optic density, OD) of NHEM after treatment with low dose DMSO, DR (5 μM), and DR (10 μM), respectively.

Hep3B cells = assay: Western blot pERK- and pAKT protein levels; format: cell-based, human; conditions: Deltarasin vs DMSO

c1ccc(Cn2c(-c3ccc(OC[C@H](C4CCNCC4)n4c(-c5ccccc5)nc5ccccc54)cc3)nc3ccccc32)cc1 [Deltarasin, (S)-1-Benzyl-2-(4-(2-(2-phenyl-1H-benzo[d]imidazol-1-yl)-2-(piperidin-4-yl)ethoxy)phenyl)-1H-benzo[d]imidazole]
toxic effects in human fibroblast cell lines [1]: no toxic effects
pERK- and pAKT protein levels (Hep3B cells): significant reduction

— patent US20200147058A1, “KRAS INHIBITOR FOR USE IN TREATING CANCER” (Friedrich-Alexander-Universitat Erlangen-Numberg, priority 2016, published 2020)
